Some test systems named below: K-562 leukemia; RPMI-8226 leukemia; HCT-15 colon; OVCAR-8 ovarian; HCC-2998 colon; RXF 393 renal; DU-145 prostate; MCF7 breast; HCT-116 colon; SF-295 CNS.
What all share (assay): NCI tumour cell line growth inhibition, 48 h

Molecules are shown by their SMILES. Where “and” joins values, the source holds several entries; their conditions need not be identical. Identical values can stand only once.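 Each compound was tested at five concentrations against cells in 96-well plates for 48 hours. At the GI50, growth is halved. TGI is the concentration that stops growth completely.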

`CC(=O)O[C@@]12CO[C@@H]1C[C@H](O)[C@@]1(C)C(=O)[C@H](O)C3=C(C)[C@@H](OC(=O)[C@H](O)[C@@H](NC(=O)OC(C)(C)C)c4ccccc4)C[C@@](O)([C@@H](OC(=O)c4ccccc4)[C@H]21)C3(C)C`: the GI50 in the assay with K-562 leukemia was 0.0147 µM and 0.0122 µM; in the assay with RPMI-8226 leukemia it was 0.0057 µM and 0.00374 µM; in the assay with HCT-15 colon, 0.0656 µM; in the assay on OVCAR-8 ovarian, 0.0139 µM and 0.0138 µM; in the assay with HCC-2998 colon, 0.0182 µM; in the assay with RXF 393 renal it was 0.0252 µM and 0.0165 µM. The GI50 with HCT-116 colon is 0.00203 µM; in the assay on SF-295 CNS, 0.0123 µM and 0.0146 µM. In addition, the TGI in the assay on K-562 leukemia is 71.9 µM; with RPMI-8226 leukemia, 15.6 µM; in the assay with HCT-15 colon, 17.1 µM; in the assay on OVCAR-8 ovarian it was more than 79.3 µM; in the assay on DU-145 prostate, 78.2 µM; with MCF7 breast, 78.4 µM. In addition, the TGI with HCT-116 colon was more than 100 µM; with SF-295 CNS it was 0.133 µM.
Consider `N#Cc1cccc(OCc2nc(N)nc(N)c2-c2ccc(Cl)c(Cl)c2)c1`, for which the GI50 in the assay on K-562 leukemia was 0.384 µM; with RPMI-8226 leukemia, 4.65 µM; in the assay with HCT-15 colon, 0.575 µM; with OVCAR-8 ovarian it was 0.765 µM; with HCC-2998 colon, 4.11 µM; in the assay with RXF 393 renal it was 2.13 µM. For the same compound, the GI50 in the assay on DU-145 prostate is 4.08 µM; in the assay with MCF7 breast, 3.09 µM; in the assay with HCT-116 colon, 0.472 µM; in the assay with SF-295 CNS, 0.46 µM. Besides, the TGI with K-562 leukemia, in the assay on RPMI-8226 leukemia, with HCT-15 colon, with OVCAR-8 ovarian, in the assay on HCC-2998 colon and in the assay with RXF 393 renal was more than 100 µM throughout. The TGI with DU-145 prostate is more than 100 µM; with MCF7 breast it was more than 100 µM; with HCT-116 colon it was more than 100 µM; in the assay with SF-295 CNS, 14.3 µM.
For the compound `CN(CCCCCl)P(=O)(OCc1ccc([N+](=O)[O-])o1)OCC1OC(n2ccc(N)nc2=O)C(F)(F)C1O` (stereo not given), the GI50 with K-562 leukemia was 13 µM; in the assay on RPMI-8226 leukemia, 1.87 µM; in the assay with HCT-15 colon, more than 73.5 µM; with OVCAR-8 ovarian, 0.108 µM; in the assay with HCC-2998 colon, 3.15 µM; in the assay on RXF 393 renal, more than 100 µM. For the same compound, the GI50 in the assay on DU-145 prostate was 0.188 µM; in the assay on MCF7 breast, 0.45 µM; in the assay on HCT-116 colon it was 1.16 µM; with SF-295 CNS, 0.878 µM. For the same compound, the TGI with K-562 leukemia was more than 100 µM; with RPMI-8226 leukemia, more than 100 µM; in the assay with HCT-15 colon, more than 100 µM; in the assay with HCC-2998 colon, 49.1 µM; in the assay with RXF 393 renal, more than 100 µM; in the assay on DU-145 prostate, more than 28.4 µM. Besides, the results for the TGI with MCF7 breast, in the assay with HCT-116 colon and with SF-295 CNS were more than 49 µM, more than 100 µM and more than 54.6 µM, respectively.
On to `Clc1ccc(/C=C/c2cc(N3CCOCC3)c3cc(Cl)c(Cl)cc3n2)cc1`, for which the GI50 is more than 100 µM in the assay with K-562 leukemia; 0.311 µM with RPMI-8226 leukemia; more than 100 µM in the assay on HCT-15 colon; more than 100 µM in the assay on OVCAR-8 ovarian; more than 100 µM in the assay with HCC-2998 colon; more than 100 µM in the assay on RXF 393 renal. The GI50 with DU-145 prostate, in the assay with MCF7 breast, with HCT-116 colon and with SF-295 CNS was more than 100 µM in each case. In addition, the TGI in the assay with K-562 leukemia was more than 100 µM; in the assay on RPMI-8226 leukemia it was 1.09 µM; in the assay with HCT-15 colon, more than 100 µM; with OVCAR-8 ovarian, more than 100 µM; with HCC-2998 colon, more than 100 µM; in the assay on RXF 393 renal it was more than 100 µM. Besides, the TGI with DU-145 prostate, in the assay on MCF7 breast, in the assay on HCT-116 colon and with SF-295 CNS was more than 100 µM each time.
Turning to `COc1cc(-n2cc(-c3ccc(F)cc3)nc2SCc2ccccc2)cc(OC)c1OC`, the GI50 with K-562 leukemia is 8.1 µM; with RPMI-8226 leukemia it was more than 100 µM; in the assay with HCT-15 colon, more than 100 µM; in the assay with OVCAR-8 ovarian it was more than 100 µM; in the assay with HCC-2998 colon, more than 100 µM; in the assay on RXF 393 renal, 19.4 µM. Besides, the GI50 is more than 100 µM with DU-145 prostate, more than 100 µM in the assay with MCF7 breast, 18.8 µM with HCT-116 colon and more than 100 µM in the assay on SF-295 CNS. Further, the TGI with K-562 leukemia, in the assay with RPMI-8226 leukemia, in the assay with HCT-15 colon, in the assay with OVCAR-8 ovarian, in the assay on HCC-2998 colon and in the assay with RXF 393 renal was more than 100 µM in each case. For the same compound, the TGI with DU-145 prostate, with MCF7 breast, in the assay with HCT-116 colon and with SF-295 CNS was more than 100 µM each time.
Regarding `Cc1ccc2c(c1)c1nc3cc(C)c(C)cc3nc1n2CCN(C)C`, the GI50 is 2.6 µM in the assay with K-562 leukemia; 2.06 µM in the assay with RPMI-8226 leukemia; 1.91 µM in the assay with HCT-15 colon; 1.73 µM in the assay on OVCAR-8 ovarian; 1.79 µM in the assay with HCC-2998 colon; 1.32 µM in the assay on RXF 393 renal. For the same compound, the GI50 is 2.9 µM in the assay with DU-145 prostate, 2.91 µM in the assay with MCF7 breast, 0.63 µM with HCT-116 colon and 2.37 µM with SF-295 CNS. Moreover, the TGI is 50.3 µM in the assay with K-562 leukemia; 5.2 µM in the assay with RPMI-8226 leukemia; 7.75 µM in the assay on HCT-15 colon; 8.29 µM in the assay with OVCAR-8 ovarian; 3.98 µM in the assay with HCC-2998 colon; 3.4 µM in the assay on RXF 393 renal. Moreover, the TGI in the assay with DU-145 prostate amounted to 10.6 µM; in the assay with MCF7 breast, 9.7 µM; in the assay with HCT-116 colon, 10.1 µM; with SF-295 CNS, 6.62 µM.
For the compound `N/C(=C\C(=O)n1nc(-c2ccccc2)cc1N)c1ccccc1`, the GI50 with K-562 leukemia was 2.06 µM; with RPMI-8226 leukemia, 2.75 µM; with HCT-15 colon, 4.09 µM; in the assay with OVCAR-8 ovarian, 13.8 µM; with HCC-2998 colon, 11.8 µM; in the assay with RXF 393 renal it was 13.3 µM. The GI50 is 5.39 µM in the assay on DU-145 prostate, 2.86 µM in the assay with MCF7 breast, 3.77 µM in the assay with HCT-116 colon and 3.48 µM with SF-295 CNS. For the same compound, the TGI is 24.4 µM in the assay on K-562 leukemia; 16.2 µM in the assay on RPMI-8226 leukemia; 74.6 µM in the assay on HCT-15 colon; more than 100 µM in the assay on OVCAR-8 ovarian; 34.2 µM in the assay on HCC-2998 colon; 44.8 µM in the assay with RXF 393 renal. In addition, the TGI in the assay with DU-145 prostate is 27.7 µM; with MCF7 breast it was 21.1 µM; in the assay with HCT-116 colon it was 16 µM; in the assay with SF-295 CNS, 31.6 µM.

The values are drawn from PubChem BioAssay (NCI).
